Test results reported in patent publication US11083725B2 (priority 2014, dated 2021).

System: NHBE cells
Assay: Biolog metabolic array: substrate use by NHBE cells with or without CA09 infection
Format: cell-based, human
Settings: for Substrate use, 590 nm absorbance normalized to zero hour, 0 hr: Biolog PMM2, 0 hr; for Substrate use, 590 nm absorbance normalized to zero hour, 1 hr: Biolog PMM2, 1 hr; for Substrate use, 590 nm absorbance normalized to zero hour, 5 hr: Biolog PMM2, 5 hr; for Substrate use, 590 nm absorbance normalized to zero hour, 7 hr: Biolog PMM2, 7 hr
[1] = Control (uninfected) NHBE cells
[2] = Virus (CA09-infected NHBE cells, MOI 1)
[3] = Virus: CA09-infected NHBE cells, MOI 1, Biolog PMM2
[4] = Virus (CA09-infected, MOI 1) NHBE cells

Row | SMILES | 590 nm absorbance normalized to zero hour (substrate use), 1 hr [1] | 590 nm absorbance normalized to zero hour (substrate use), 2 hr [1] | 590 nm absorbance normalized to zero hour (substrate use), 3 hr [1] | 590 nm absorbance normalized to zero hour (substrate use), 4 hr [1] | 590 nm absorbance normalized to zero hour (substrate use), 6 hr [1] | 590 nm absorbance normalized to zero hour (substrate use), 8 hr [1] | 590 nm absorbance normalized to zero hour (substrate use), 9 hr [1] | 590 nm absorbance normalized to zero hour (substrate use), 10 hr [1] | 590 nm absorbance normalized to zero hour (substrate use), 11 hr [1] | Substrate use, 590 nm absorbance normalized to zero hour, 1 hr [1] | Substrate use, 590 nm absorbance normalized to zero hour, 5 hr [1] | Substrate use, 590 nm absorbance normalized to zero hour, 7 hr [1] | 590 nm absorbance normalized to zero hour (substrate use), 1 hr [3] | 590 nm absorbance normalized to zero hour (substrate use), 2 hr [3] | 590 nm absorbance normalized to zero hour (substrate use), 3 hr [3] | 590 nm absorbance normalized to zero hour (substrate use), 4 hr [3] | 590 nm absorbance normalized to zero hour (substrate use), 5 hr [3] | 590 nm absorbance normalized to zero hour (substrate use), 6 hr [3] | 590 nm absorbance normalized to zero hour (substrate use), 7 hr [3] | 590 nm absorbance normalized to zero hour (substrate use), 8 hr [3] | also measured
1 | OC[C@@H]1OC(O)[C@@H](O)[C@H](O)[C@H]1O (stereo partly drawn) [L-Glucose] | 1.65 | 2.20 | 2.64 | 2.83 | 3.82 | 3.55 | 3.76 | 3.89 | 4.25 | 1.65 | 3.52 | 3.51 | 0.29 | 0.39 | 0.45 | 0.49 | 0.57 | 0.61 | 0.64 | 0.68 | 590 nm absorbance normalized to zero hour (substrate use), 0 hr [1]: 1.00; Substrate use, 590 nm absorbance normalized to zero hour, 0 hr [1]: 1.00; 590 nm absorbance normalized to zero hour (substrate use), 0 hr [2]: 1.00; 590 nm absorbance normalized to zero hour (substrate use), 1 hr [2]: 0.29; 590 nm absorbance normalized to zero hour (substrate use), 2 hr [2]: 0.39; 590 nm absorbance normalized to zero hour (substrate use), 3 hr [2]: 0.45; 590 nm absorbance normalized to zero hour (substrate use), 4 hr [2]: 0.49; 590 nm absorbance normalized to zero hour (substrate use), 5 hr [2]: 0.57; 590 nm absorbance normalized to zero hour (substrate use), 6 hr [2]: 0.61; 590 nm absorbance normalized to zero hour (substrate use), 7 hr [2]: 0.64; 590 nm absorbance normalized to zero hour (substrate use), 8 hr [2]: 0.68; 590 nm absorbance normalized to zero hour (substrate use), 9 hr [2]: 0.76; 590 nm absorbance normalized to zero hour (substrate use), 10 hr [2]: 0.76; 590 nm absorbance normalized to zero hour (substrate use), 11 hr [2]: 0.86; 590 nm absorbance normalized to zero hour (substrate use), 0 hr [3]: 1.00; 590 nm absorbance normalized to zero hour (substrate use), 9 hr [3]: 0.76; 590 nm absorbance normalized to zero hour (substrate use), 10 hr [3]: 0.76; 590 nm absorbance normalized to zero hour (substrate use), 11 hr [3]: 0.86
2 | CC(O)C(=O)O [L-Lactic Acid (DL)] | 1.56 | 2.01 | 2.57 | 2.66 | 1.75 | 3.21 | 3.56 | 3.63 | 4.70 | 1.56 | 3.09 | 2.97 | 1.33 | 1.66 | 2.04 | 2.11 | 2.48 | 2.68 | 2.86 | 3.04 | 590 nm absorbance normalized to zero hour (substrate use), 0 hr [1]: 1.00; Substrate use, 590 nm absorbance normalized to zero hour, 0 hr [1]: 1.00; 590 nm absorbance normalized to zero hour (substrate use), 0 hr [4]: 1.00; 590 nm absorbance normalized to zero hour (substrate use), 1 hr [4]: 1.33; 590 nm absorbance normalized to zero hour (substrate use), 2 hr [4]: 1.66; 590 nm absorbance normalized to zero hour (substrate use), 3 hr [4]: 2.04; 590 nm absorbance normalized to zero hour (substrate use), 4 hr [4]: 2.11; 590 nm absorbance normalized to zero hour (substrate use), 5 hr [4]: 2.48; 590 nm absorbance normalized to zero hour (substrate use), 6 hr [4]: 2.68; 590 nm absorbance normalized to zero hour (substrate use), 7 hr [4]: 2.86; 590 nm absorbance normalized to zero hour (substrate use), 8 hr [4]: 3.04; 590 nm absorbance normalized to zero hour (substrate use), 9 hr [4]: 3.36; 590 nm absorbance normalized to zero hour (substrate use), 10 hr [4]: 3.49; 590 nm absorbance normalized to zero hour (substrate use), 11 hr [4]: 3.91; 590 nm absorbance normalized to zero hour (substrate use), 0 hr [3]: 1.00; 590 nm absorbance normalized to zero hour (substrate use), 9 hr [3]: 3.36; 590 nm absorbance normalized to zero hour (substrate use), 10 hr [3]: 3.49; 590 nm absorbance normalized to zero hour (substrate use), 11 hr [3]: 3.91
3 | O=C(O)C[C@H](O)C(=O)O [L-Malic Acid] | 1.11 | 1.27 | 1.37 | 1.35 | 0.72 | 1.35 | 1.39 | 1.37 | 1.43 | 1.11 | 1.41 | 1.33 | 1.48 | 1.19 | 1.27 | 3.32 | 1.59 | 1.42 | 2.93 | 3.48 | 590 nm absorbance normalized to zero hour (substrate use), 0 hr [1]: 1.00; Substrate use, 590 nm absorbance normalized to zero hour, 0 hr [1]: 1.00; 590 nm absorbance normalized to zero hour (substrate use), 0 hr [4]: 1.00; 590 nm absorbance normalized to zero hour (substrate use), 1 hr [4]: 1.48; 590 nm absorbance normalized to zero hour (substrate use), 2 hr [4]: 1.19; 590 nm absorbance normalized to zero hour (substrate use), 3 hr [4]: 1.27; 590 nm absorbance normalized to zero hour (substrate use), 4 hr [4]: 3.32; 590 nm absorbance normalized to zero hour (substrate use), 5 hr [4]: 1.59; 590 nm absorbance normalized to zero hour (substrate use), 6 hr [4]: 1.42; 590 nm absorbance normalized to zero hour (substrate use), 7 hr [4]: 2.93; 590 nm absorbance normalized to zero hour (substrate use), 8 hr [4]: 3.48; 590 nm absorbance normalized to zero hour (substrate use), 9 hr [4]: 1.72; 590 nm absorbance normalized to zero hour (substrate use), 10 hr [4]: 2.20; 590 nm absorbance normalized to zero hour (substrate use), 11 hr [4]: 2.05; 590 nm absorbance normalized to zero hour (substrate use), 0 hr [3]: 1.00; 590 nm absorbance normalized to zero hour (substrate use), 9 hr [3]: 1.72; 590 nm absorbance normalized to zero hour (substrate use), 10 hr [3]: 2.20; 590 nm absorbance normalized to zero hour (substrate use), 11 hr [3]: 2.05
4 | C[C@H](O)[C@H](O)[C@@H](O)[C@@H](O)C=O [L-Rhamnose] | 1.28 | 1.52 | 1.49 | 1.66 | 2.53 | 2.01 | 2.71 | 2.22 | 2.36 | 1.28 | 2.12 | 1.91 | 0.16 | 0.22 | 0.25 | 0.28 | 0.32 | 0.34 | 0.36 | 0.38 | 590 nm absorbance normalized to zero hour (substrate use), 1 hr [2]: 0.16; 590 nm absorbance normalized to zero hour (substrate use), 2 hr [2]: 0.22; 590 nm absorbance normalized to zero hour (substrate use), 3 hr [2]: 0.25; 590 nm absorbance normalized to zero hour (substrate use), 4 hr [2]: 0.28; 590 nm absorbance normalized to zero hour (substrate use), 5 hr [2]: 0.32; 590 nm absorbance normalized to zero hour (substrate use), 6 hr [2]: 0.34; 590 nm absorbance normalized to zero hour (substrate use), 7 hr [2]: 0.36; 590 nm absorbance normalized to zero hour (substrate use), 8 hr [2]: 0.38; 590 nm absorbance normalized to zero hour (substrate use), 9 hr [2]: 0.41; 590 nm absorbance normalized to zero hour (substrate use), 10 hr [2]: 0.43; 590 nm absorbance normalized to zero hour (substrate use), 11 hr [2]: 0.46; 590 nm absorbance normalized to zero hour (substrate use), 9 hr [3]: 0.41; 590 nm absorbance normalized to zero hour (substrate use), 10 hr [3]: 0.43; 590 nm absorbance normalized to zero hour (substrate use), 11 hr [3]: 0.46
